Values quoted from earlier work, collected in US10278642B2, “Methods of assessing metabolic function” (Aurum Biosciences Limited, priority 2012, dated 2019).

Settings: by 100 ml of the liquid at standard pressure and temperature

For `FC1(F)C(F)(F)C(F)(F)C2(F)C(F)(F)C(F)(F)C(F)(F)C(F)(F)C2(F)C1(F)F` (stereo not shown) [perfluorodecalin], the oxygen dissolved is listed as 49 mL.
